System: HCT 116 cells
Assay: CellTiter-Glo Assay in HCT 116 Cells
Format: cell-based
Details: HCT 116 human colon carcinoma cells, 5 days (120 h) incubation, CellTiter-Glo luminescence, tested in triplicate
Source text: CellTiter-Glo™ Assay in HCT 116 Cells
The CellTiter-Glo™ Luminescent Cell Viability Assay (Promega) is a homogeneous method of determining the number of viable cells in culture based on quantitation of the ATP present, which signals the presence of metabolically active cells.
HCT 116 cells (human colon carcinoma, ATCC-No. CCl-247) were cultivated in RPMI 1640 medium with GlutaMAX™ I (Invitrogen, Cat-No. 61870-010), 5% Fetal Calf Serum (FCS, Sigma Cat-No. F4135 (FBS)); 100 Units/ml penicillin/100 μg/ml streptomycin (=Pen/Strep from Invitrogen Cat. No. 15140). For the assay the cells were seeded in 384 well plates, 1000 cells per well, in the same medium. The next day the test compounds were added in various concentrations ranging from 30 μM to 0.0015 μM (10 concentrations, 1:3 diluted). After 5 days the CellTiter-Glo™ assay was done according to the instructions of the manufacturer (CellTiter-Glo™ Luminescent Cell Viability Assay, from Promega). In brief: the cell-plate was equilibrated to room temperature for approximately 30 minutes and than the CellTiter-Glo™ reagent was added. The contents were carefully mixed for 15 minutes to induce cell lysis. After 45 minutes the luminescent signal was measured in Victor 2, (scanning multiwell spectrophotometer, Wallac).
• Medium: RPMI 1640 with GlutaMAX™ I (Invitrogen, Cat-Nr. 61870), 5% FCS (Sigma Cat.-No. F4135), Pen/Strep (Invitrogen, Cat No. 15140). • HCT116 (ATCC-No. CCl-247): 1000 cells in 60 μl per well of 384 well plate (Greiner 781098, μClear-plate white) • After seeding incubate plates 24 h at 37° C., 5% CO2 2nd. Day: Induction (Treatment with Compounds, 10 Concentrations):
In order to achieve a final concentration of 30 μM as highest concentration 3.5 μl of 10 mM compound stock solution were added directly to 163 μl media. Then step e) of the dilution procedure described below, was followed.

SMILES	IC50
O=C(Nc1cccc2nc(-c3c(NCc4ccccc4)cc[nH]c3=O)[nH]c12)c1ccccc1 [Example A-4, N-[2-(4-Benzylamino-2-oxo-1,2-dihydro-pyridin-3-yl)-3H-benzoimidazol-4-yl]-benzamide]	1 to 15 µM
COc1ccc(C(=O)Nc2cccc3nc(-c4c(NCc5ccccc5)cc[nH]c4=O)[nH]c23)cc1 [Example A-3, N-[2-(4-Benzylamino-2-oxo-1,2-dihydro-pyridin-3-yl)-3H-benzoimidazol-4-yl]-4-methoxy-benzamide]	1 to 15 µM
O=C(Nc1cccc2nc(-c3c(NCc4cccc(Cl)c4)cc[nH]c3=O)[nH]c12)c1ccccc1 [Example B-2, N-{2-[4-(3-Chloro-benzylamino)-2-oxo-1,2-dihydro-pyridin-3-yl]-3H-benzoimidazol-4-yl}-benzamide]	1 to 15 µM
CC(C)(C)C(=O)Nc1cccc2nc(-c3c(NC[C@@H](O)c4ccccc4)cc[nH]c3=O)[nH]c12 [Example B-3, N-{2-[4-((S)-2-Hydroxy-2-phenyl-ethylamino)-2-oxo-1,2-dihydro-pyridin-3-yl]-3H-benzoimidazol-4-yl}-2,2-dimethyl-propionamide]	1 to 15 µM
O=C(Nc1cccc2nc(-c3c(NC[C@@H](O)c4ccccc4)cc[nH]c3=O)[nH]c12)c1cccc(C(F)(F)F)c1 [Example B-5, N-{2-[4-((S)-2-Hydroxy-2-phenyl-ethylamino)-2-oxo-1,2-dihydro-pyridin-3-yl]-3H-benzoimidazol-4-yl}-3-trifluoromethyl-benzamide]	1 to 15 µM
O=C(Nc1cccc2nc(-c3c(NCC(O)c4ccccc4)cc[nH]c3=O)[nH]c12)c1ccccc1Cl (stereo not shown) [Example B-10, 2-Chloro-N-{2-[4-(2-hydroxy-2-phenyl-ethylamino)-2-oxo-1,2-dihydro-pyridin-3-yl]-3H-benzoimidazol-4-yl}-benzamide]	1 to 15 µM
O=C(Nc1cccc2nc(-c3c(NC[C@@H](O)c4ccccc4)cc[nH]c3=O)[nH]c12)c1ccc(C(F)(F)F)cc1 [Example A-15, N-{2-[4-((S)-2-Hydroxy-2-phenyl-ethylamino)-2-oxo-1,2-dihydro-pyridin-3-yl]-3H-benzoimidazol-4-yl}-4-trifluoromethyl-benzamide]	1 to 15 µM
O=C(Nc1cccc2nc(-c3c(NCC(O)c4ccccc4)cc[nH]c3=O)[nH]c12)c1cccc(Cl)c1 (stereo not shown) [Example A-11, 3-Chloro-N-[2-[4-(2-hydroxy-2-phenyl-ethylamino)-2-oxo-1,2-dihydro-pyridin-3-yl]-3H-benzoimidazol-4-yl]-benzamide]	1 to 15 µM
O=C(Nc1cccc2nc(-c3c(NC[C@@H](O)c4ccccc4)cc[nH]c3=O)[nH]c12)c1ccc(F)cc1 [Example A-12, 4-Fluoro-N-{2-[4-((S)-2-hydroxy-2-phenyl-ethylamino)-2-oxo-1,2-dihydro-pyridin-3-yl]-3H-benzoimidazol-4-yl}-benzamide]	1 to 15 µM
COc1ccc(OC(=O)Nc2cccc3nc(-c4c(NC[C@@H](O)c5ccccc5)cc[nH]c4=O)[nH]c23)cc1 [Example C-1, {2-[4-((S)-2-Hydroxy-2-phenyl-ethylamino)-2-oxo-1,2-dihydro-pyridin-3-yl]-3H-benzoimidazol-4-yl}-carbamic acid 4-methoxy-phenyl ester]	1 to 15 µM
COc1cccc(C(=O)Nc2cccc3nc(-c4c(NC[C@@H](O)c5ccccc5)cc[nH]c4=O)[nH]c23)c1 [Example B-18, N-{2-[4-((S)-2-Hydroxy-2-phenyl-ethylamino)-2-oxo-1,2-dihydro-pyridin-3-yl]-3H-benzoimidazol-4-yl}-3-methoxy-benzamide]	1 to 15 µM
O=C(Nc1cccc2nc(-c3c(NCc4ccccn4)cc[nH]c3=O)[nH]c12)c1ccccc1 [Example A-5, N-(2-{2-oxo-4-[(pyridin-2-ylmethyl)-amino]-1,2-dihydro-pyridin-3-yl}-3H-benzoimidazol-4-yl)-benzamide]	1 to 15 µM
O=C(Nc1cccc2nc(-c3c(NCc4ccccc4)cc[nH]c3=O)[nH]c12)c1ccc(Cl)cc1 [Example A-18, N-[2-(4-Benzylamino-2-oxo-1,2-dihydro-pyridin-3-yl)-3H-benzoimidazol-4-yl]-4-chloro-benzamide]	1 to 15 µM

More lines, now with the values ahead:

IC50	SMILES
1 to 15 µM	O=C(Nc1ccccc1)Nc1cccc2nc(-c3c(NC[C@@H](O)c4ccccc4)cc[nH]c3=O)[nH]c12 [Example D-5, 1-{2-[4-((S)-2-Hydroxy-2-phenyl-ethylamino)-2-oxo-1,2-dihydro-pyridin-3-yl]-3H-benzoimidazol-4-yl}-3-phenyl-urea]
1 to 15 µM	CC(C)OC(=O)Nc1cccc2nc(-c3c(NC[C@@H](O)c4ccccc4)cc[nH]c3=O)[nH]c12 [Example C-6, {2-[4-((S)-2-Hydroxy-2-phenyl-ethylamino)-2-oxo-1,2-dihydro-pyridin-3-yl]-3H-benzoimidazol-4-yl}-carbamic acid isopropyl ester]
1 to 15 µM	COCCOC(=O)Nc1cccc2nc(-c3c(NC[C@@H](O)c4ccccc4)cc[nH]c3=O)[nH]c12 [Example C-2, {2-[4-((S)-2-Hydroxy-2-phenyl-ethylamino)-2-oxo-1,2-dihydro-pyridin-3-yl]-3H-benzoimidazol-4-yl}-carbamic acid 2-methoxy-ethyl ester]
1 to 15 µM	O=C(Nc1cccc(F)c1)Nc1cccc2nc(-c3c(NC[C@@H](O)c4ccccc4)cc[nH]c3=O)[nH]c12 [Example D-1, 1-(3-Fluoro-phenyl)-3-{2-[4-((S)-2-hydroxy-2-phenyl-ethylamino)-2-oxo-1,2-dihydro-pyridin-3-yl]-3H-benzoimidazol-4-yl}-urea]
1 to 15 µM	COc1ccc(NC(=O)Nc2cccc3nc(-c4c(NC[C@@H](O)c5ccccc5)cc[nH]c4=O)[nH]c23)cc1 [Example D-2, 1-{2-[4-((S)-2-Hydroxy-2-phenyl-ethylamino)-2-oxo-1,2-dihydro-pyridin-3-yl]-3H-benzoimidazol-4-yl}-3-(4-methoxy-phenyl)-urea]
1 to 15 µM	O=C(Nc1ccccc1Cl)Nc1cccc2[nH]c(-c3c(NC[C@@H](O)c4cccc(Cl)c4)cc[nH]c3=O)nc12 [Example D-8, 1-(2-Chloro-phenyl)-3-(2-{4-[(S)-2-(3-chloro-phenyl)-2-hydroxy-ethylamino]-2-oxo-1,2-dihydro-pyridin-3-yl}-1H-benzoimidazol-4-yl)-urea]
1 to 15 µM	O=C(NCc1ccccc1)Nc1cccc2nc(-c3c(NC[C@@H](O)c4ccccc4)cc[nH]c3=O)[nH]c12 [Example D-7, 1-Benzyl-3-{2-[4-((S)-2-hydroxy-2-phenyl-ethylamino)-2-oxo-1,2-dihydro-pyridin-3-yl]-3H-benzoimidazol-4-yl}-urea]
3.61 µM	O=C(Nc1ccc(F)cc1)Nc1cccc2nc(-c3c(NC[C@@H](O)c4ccccc4)cc[nH]c3=O)[nH]c12 [Example D-3, 1-(4-Fluoro-phenyl)-3-{2-[4-((S)-2-hydroxy-2-phenyl-ethylamino)-2-oxo-1,2-dihydro-pyridin-3-yl]-3H-benzoimidazol-4-yl}-urea]
1 to 15 µM	COc1cccc(NC(=O)Nc2cccc3nc(-c4c(NC[C@@H](O)c5ccccc5)cc[nH]c4=O)[nH]c23)c1 [Example D-6, 1-{2-[4-((S)-2-Hydroxy-2-phenyl-ethylamino)-2-oxo-1,2-dihydro-pyridin-3-yl]-3H-benzoimidazol-4-yl}-3-(3-methoxy-phenyl)-urea]
